Laboratory results published in PubChem BioAssay (NCI).
Values joined by “and” are separate entries in the source; they are usually repeats but may differ in a detail not shown here. Equal entries are not always repeated.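 48-hour exposure; five concentrations; linearly interpolated endpoints. The concentration for 50% growth inhibition is given as GI50. TGI marks complete inhibition of growth.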

Key:
Assay in all cases: NCI-60 cell line screen, 48 h
786-0 renal = tested on: 786-0 renal
A498 renal = tested on: A498 renal
A549 NSCLC = tested on: A549 NSCLC
ACHN renal = tested on: ACHN renal
BT-549 breast = tested on: BT-549 breast
CAKI-1 renal = tested on: CAKI-1 renal
CCRF-CEM leukemia = tested on: CCRF-CEM leukemia
COLO 205 colon = tested on: COLO 205 colon
DU-145 prostate = tested on: DU-145 prostate
EKVX NSCLC = tested on: EKVX NSCLC
HCC-2998 colon = tested on: HCC-2998 colon
HCT-116 colon = tested on: HCT-116 colon
HCT-15 colon = tested on: HCT-15 colon
HL-60(TB) leukemia = tested on: HL-60(TB) leukemia
HOP-62 NSCLC = tested on: HOP-62 NSCLC
HOP-92 NSCLC = tested on: HOP-92 NSCLC
HS 578T breast = tested on: HS 578T breast
HT29 colon = tested on: HT29 colon
IGROV1 ovarian = tested on: IGROV1 ovarian
K-562 leukemia = tested on: K-562 leukemia
KM12 colon = tested on: KM12 colon
LOX IMVI melanoma = tested on: LOX IMVI melanoma
M14 melanoma = tested on: M14 melanoma
MALME-3M melanoma = tested on: MALME-3M melanoma
MCF7 breast = tested on: MCF7 breast
MDA-MB-231 breast = tested on: MDA-MB-231 breast
MDA-MB-435 = tested on: MDA-MB-435
MOLT-4 leukemia = tested on: MOLT-4 leukemia
NCI-H226 lung = tested on: NCI-H226 lung
NCI-H23 lung = tested on: NCI-H23 lung
NCI-H460 lung = tested on: NCI-H460 lung
NCI-H522 lung = tested on: NCI-H522 lung
NCI/ADR-RES ovarian = tested on: NCI/ADR-RES ovarian
OVCAR-3 ovarian = tested on: OVCAR-3 ovarian
OVCAR-4 ovarian = tested on: OVCAR-4 ovarian
OVCAR-5 ovarian = tested on: OVCAR-5 ovarian
OVCAR-8 ovarian = tested on: OVCAR-8 ovarian
PC-3 prostate = tested on: PC-3 prostate
RPMI-8226 leukemia = tested on: RPMI-8226 leukemia
RXF 393 renal = tested on: RXF 393 renal
SF-268 CNS = tested on: SF-268 CNS
SF-295 CNS = tested on: SF-295 CNS
SF-539 CNS = tested on: SF-539 CNS
SK-MEL-2 melanoma = tested on: SK-MEL-2 melanoma
SK-MEL-28 melanoma = tested on: SK-MEL-28 melanoma
SK-MEL-5 melanoma = tested on: SK-MEL-5 melanoma
SK-OV-3 ovarian = tested on: SK-OV-3 ovarian
SN12C renal = tested on: SN12C renal
SNB-19 CNS = tested on: SNB-19 CNS
SNB-75 CNS = tested on: SNB-75 CNS
SR leukemia = tested on: SR leukemia
SW-620 colon = tested on: SW-620 colon
T-47D breast = tested on: T-47D breast
TK-10 renal = tested on: TK-10 renal
U251 CNS = tested on: U251 CNS
UACC-257 melanoma = tested on: UACC-257 melanoma
UACC-62 melanoma = tested on: UACC-62 melanoma
UO-31 renal = tested on: UO-31 renal

COc1cc2c(Nc3ccc(Cl)c(Cl)c3F)ncnc2cc1OCC1C[C@@H]2CN(C)C[C@@H]2C1 (stereo not given in full)
GI50 (786-0 renal): 1.11 µM and 1.06 µM and 1.03 µM | TGI (786-0 renal): 2.58 µM and 2.9 µM and 2.85 µM | GI50 (A498 renal): 0.186 µM and 0.433 µM and 0.278 µM | TGI (A498 renal): 1.49 µM and 2.03 µM and 2.05 µM | GI50 (A549 NSCLC): 1.23 µM and 1.35 µM and 1.28 µM | TGI (A549 NSCLC): 4.05 µM and > 5.68 µM and 7.93 µM | GI50 (ACHN renal): 0.0468 µM and 0.0512 µM and 0.0553 µM | TGI (ACHN renal): 3.48 µM and > 7.36 µM and 5.74 µM | GI50 (BT-549 breast): 4.68 µM and 3.76 µM and 2.39 µM | TGI (BT-549 breast): 13.7 µM and > 10 µM and 7.66 µM | GI50 (CAKI-1 renal): 0.219 µM and 0.511 µM and 0.206 µM | TGI (CAKI-1 renal): 2.75 µM and 2.36 µM and 2.32 µM | TGI (CCRF-CEM leukemia): 7.56 µM and 1.24 µM and 10.5 µM | GI50 (COLO 205 colon): 1.81 µM and 1.83 µM and 1.72 µM | TGI (COLO 205 colon): 3.47 µM and 4.32 µM and 3.93 µM | GI50 (DU-145 prostate): 0.751 µM and 0.532 µM and 0.673 µM | TGI (DU-145 prostate): 13.6 µM and > 10 µM and 13.5 µM | GI50 (EKVX NSCLC): 0.033 µM and 0.101 µM | TGI (EKVX NSCLC): > 6.55 µM and 15.2 µM | GI50 (HCC-2998 colon): 2.37 µM and 1.41 µM and 1.82 µM | TGI (HCC-2998 colon): 7.1 µM and > 5.78 µM and 5.03 µM | GI50 (HCT-116 colon): 2.21 µM and 1.59 µM and 1.82 µM | TGI (HCT-116 colon): 10.9 µM and > 8.58 µM and 9.06 µM | GI50 (HCT-15 colon): 1.14 µM and 1.25 µM and 1.13 µM | TGI (HCT-15 colon): 3.7 µM and 5.42 µM and 4.51 µM | GI50 (HL-60(TB) leukemia): 2.31 µM and 1.99 µM and 2.43 µM | TGI (HL-60(TB) leukemia): 5.72 µM and 4.73 µM and 5.73 µM | GI50 (HOP-62 NSCLC): 1.08 µM and 1 µM and 1.52 µM | TGI (HOP-62 NSCLC): 4.17 µM and > 4.9 µM and 5.75 µM | GI50 (HOP-92 NSCLC): 0.247 µM and 0.195 µM and 1.5 µM | TGI (HOP-92 NSCLC): 1.85 µM and 1.8 µM and 6.78 µM | GI50 (HS 578T breast): 1.13 µM and 1.4 µM and 1.54 µM | TGI (HS 578T breast): 4.67 µM and 5.45 µM and 5.83 µM | GI50 (HT29 colon): 0.695 µM and 0.759 µM and 0.621 µM | TGI (HT29 colon): 4.62 µM and 5.86 µM and 4.38 µM | GI50 (IGROV1 ovarian): 0.112 µM and 0.0284 µM and 0.0507 µM | TGI (IGROV1 ovarian): 1.95 µM and 0.791 µM and 1.44 µM | GI50 (K-562 leukemia): 0.24 µM and 0.114 µM and 0.17 µM | TGI (K-562 leukemia): 2.69 µM and > 7.77 µM and 3.14 µM | GI50 (KM12 colon): 2.94 µM and 3.5 µM and 3.85 µM | TGI (KM12 colon): 9.03 µM and > 10 µM and 15.7 µM | GI50 (LOX IMVI melanoma): 0.953 µM and 1.18 µM | TGI (LOX IMVI melanoma): 2.31 µM and 2.49 µM and 2.46 µM | GI50 (M14 melanoma): 1.77 µM and 1.67 µM and 1.82 µM | TGI (M14 melanoma): 3.5 µM and 3.53 µM and 3.77 µM | GI50 (MALME-3M melanoma): 1.79 µM and 1.58 µM | TGI (MALME-3M melanoma): 4.25 µM and 3.54 µM and 3.63 µM | GI50 (MCF7 breast): 0.806 µM and 1.19 µM and 1.52 µM | TGI (MCF7 breast): 6.37 µM and > 6.9 µM and 8.05 µM | GI50 (MDA-MB-231 breast): 1.41 µM and 1.12 µM and 1.5 µM | TGI (MDA-MB-231 breast): 4.3 µM and 3.02 µM and 4.88 µM | GI50 (MDA-MB-435): 1.57 µM and 1.78 µM and 1.85 µM | TGI (MDA-MB-435): 3.05 µM and 3.9 µM and 4.29 µM | GI50 (MOLT-4 leukemia): 2.18 µM and 1.86 µM and 2.23 µM | TGI (MOLT-4 leukemia): 7.03 µM and 7.85 µM and 8.67 µM | GI50 (NCI-H226 lung): 3.05 µM and > 4.5 µM and 2.17 µM | TGI (NCI-H226 lung): 15.1 µM and > 10 µM and 14.7 µM | GI50 (NCI-H23 lung): 1.98 µM and 2.1 µM | TGI (NCI-H23 lung): 7.01 µM and > 6.38 µM and 9.22 µM | GI50 (NCI-H460 lung): 2.66 µM and 2.73 µM and 3.35 µM | TGI (NCI-H460 lung): 9.16 µM and > 10 µM and 13.5 µM | GI50 (NCI-H522 lung): 0.304 µM and 0.0752 µM and 0.64 µM | TGI (NCI-H522 lung): 2.53 µM and 1.66 µM and 3.1 µM | GI50 (NCI/ADR-RES ovarian): 1.73 µM and 1.57 µM and 1.22 µM | TGI (NCI/ADR-RES ovarian): 9.93 µM and > 9.38 µM and 7.35 µM | GI50 (OVCAR-3 ovarian): 1.01 µM and 0.422 µM and 1.79 µM | TGI (OVCAR-3 ovarian): 8.18 µM and > 9.27 µM and 14.7 µM | GI50 (OVCAR-4 ovarian): 1.58 µM and 1.69 µM and 1.75 µM | TGI (OVCAR-4 ovarian): 13.4 µM and > 10 µM and 14 µM | GI50 (OVCAR-5 ovarian): 0.247 µM and 0.532 µM and 0.646 µM | TGI (OVCAR-5 ovarian): 5.35 µM and > 10 µM and 13.6 µM | GI50 (OVCAR-8 ovarian): 2.06 µM and 2.09 µM and 2.43 µM | TGI (OVCAR-8 ovarian): 13.8 µM and > 10 µM and 13.6 µM | GI50 (PC-3 prostate): 1.53 µM and 1.36 µM and 2.12 µM | TGI (PC-3 prostate): 11.6 µM and > 9.56 µM and 8.99 µM | GI50 (RPMI-8226 leukemia): 1.98 µM and 1.49 µM and 1.93 µM | TGI (RPMI-8226 leukemia): 4.95 µM and 4.29 µM and 5.97 µM | GI50 (RXF 393 renal): 0.808 µM and 0.69 µM and 0.846 µM | TGI (RXF 393 renal): 2.36 µM and 2.41 µM and 2.51 µM | GI50 (SF-268 CNS): 1.25 µM and 0.951 µM and 1.29 µM | TGI (SF-268 CNS): 4.31 µM and > 4.82 µM and 7.74 µM | GI50 (SF-295 CNS): 1.61 µM and 1.54 µM and 1.46 µM | TGI (SF-295 CNS): 3.41 µM and 3.26 µM and 3.31 µM | GI50 (SF-539 CNS): 1.47 µM and 1.48 µM and 1.58 µM | TGI (SF-539 CNS): 3 µM and 3.01 µM and 3.36 µM | GI50 (SK-MEL-2 melanoma): 2.32 µM and 1.92 µM and 2.05 µM | TGI (SK-MEL-2 melanoma): 4.83 µM and 4.01 µM and 4.47 µM | GI50 (SK-MEL-28 melanoma): 1.6 µM and 1.57 µM and 1.83 µM | TGI (SK-MEL-28 melanoma): 3.33 µM and 3.22 µM and 4.15 µM | GI50 (SK-MEL-5 melanoma): 1.61 µM and 1.55 µM and 1.57 µM | TGI (SK-MEL-5 melanoma): 3.01 µM and 2.93 µM and 2.94 µM | GI50 (SK-OV-3 ovarian): 0.234 µM and 0.241 µM and 0.195 µM | TGI (SK-OV-3 ovarian): 0.902 µM and 1.51 µM and 0.865 µM | GI50 (SN12C renal): 0.703 µM and 0.548 µM and 1.05 µM | TGI (SN12C renal): 12.6 µM and > 10 µM and 12.2 µM | GI50 (SNB-19 CNS): 2.17 µM and 2.39 µM and 2.04 µM | TGI (SNB-19 CNS): 8.76 µM and > 6.91 µM and 7.07 µM | GI50 (SNB-75 CNS): 0.406 µM and 0.43 µM and 0.822 µM | TGI (SNB-75 CNS): 2.03 µM and 5.86 µM | GI50 (SR leukemia): 2.06 µM and 2.09 µM and 1.92 µM | TGI (SR leukemia): 5.49 µM and 5.21 µM and 5.39 µM | GI50 (SW-620 colon): 1.6 µM and 1.46 µM and 1.72 µM | TGI (SW-620 colon): 3.56 µM and 4.06 µM and 5.06 µM | GI50 (T-47D breast): 0.465 µM and 0.363 µM and 0.33 µM | TGI (T-47D breast): 6.56 µM and > 10 µM and 10.2 µM | GI50 (TK-10 renal): 0.109 µM and 0.0302 µM and 0.0472 µM | TGI (TK-10 renal): 1.76 µM and 1.41 µM and 1.45 µM | GI50 (U251 CNS): 1.52 µM and 1.8 µM and 2.3 µM | TGI (U251 CNS): 3.41 µM and 4.43 µM and 6.6 µM | GI50 (UACC-257 melanoma): 1.76 µM and 1.68 µM and 1.95 µM | TGI (UACC-257 melanoma): 3.64 µM and 3.57 µM and 4.05 µM | GI50 (UACC-62 melanoma): 1.91 µM and 1.54 µM and 1.88 µM | TGI (UACC-62 melanoma): 4.15 µM and 3.8 µM and 4.41 µM | GI50 (UO-31 renal): 0.171 µM and 0.101 µM and 0.177 µM | TGI (UO-31 renal): 1.93 µM and 1.61 µM and 1.87 µM
